Source: US11590110B2, “Compositions and methods for reactivating latent immunodeficiency virus using a GSK-3 inhibitor” (priority 2017, dated 2023)
“Also recorded” adds a separate entry of the source. Read-outs that look alike come from different tables or passages of the source.

Experiments:
CD4+ T cells [1] = test: Example 5: lactate production analysis; assay type: cell-based, human
Method: Subsequently, media of the treated samples were tested for production of L-lactated using a Glycolysis Cell-Based Assay Kit (Cayman Chemical). This test measures the quantity of formazan, an artificial chromogenic dye that results from the reduction of tetrazolium salts in the presence of NADH in the culture media. Colored formazan absorbs between 490 and 520 nm and can be detected by a plate reader. Since lactate dehydrogenase catalyzes the reaction between NAD+ and lactate, yielding pyruvate and NADH, which directly reduces the tetrazolium salt, the quantity of formazan produced is proportional to the quantity of L-lactate in the culture medium, and is thus an indirect measurement of glycolysis. In order to determine specific L-Lactate concentration, a standard curve was obtained analyzing absorbance of known concentration of L-lactate as indicated in the manufacturer's protocol.

[2] = test system: latent HIV-GFP reporter virus in resting CD4+ T cells from human tonsil; test: Example 6: lymphoid tissue model of HIV latency, HIV-GFP reporter, flow cytometry; assay type: cell-based; conditions: 48 hours; for latency reversal by first-generation LRAs: bryostatin-1 10 nM, JQ1 100 nM, panobinostat 50 nM
tonsil CD4+ T cells = test: Example 6: cell viability in tonsil CD4+ T cell cultures, Cell-Titer Blue; conditions: SB216763 10-1,000 nM, PMA 200 nM, panobinostat 50 nM; 48 hours
NF-κB (p65) = test: Example 5: NF-κB p65 nuclear translocation, western blot of nuclear extracts; assay type: cell-based, human; conditions: 250 nM inhibitor with 1 μM tideglusib
CD4+ T cells [3] = test: Example 5: GLUT1 surface expression, flow cytometry; assay type: cell-based, human; conditions: 2 or 24 hours; 1 μM tideglusib; CD4+ T cells of three HIV-negative donors
Method: (§1) Freshly isolated PBMCs or CD4^+ T cells were stained for viability, using the fixable viability dye Zombie violet (1:50, Biolegend) according to the manufacturer's recommendation. Surface staining was performed with the following antibodies at 1:100 dilutions: CD3-PE-Cy7, CD4-APC-Cy7, CD69-FITC, CD25-PE (all 1:100, Biolegend), and Glut-1-Ax647 (BD Bioscience, 566580) in staining buffer for 20 min on ice and cells were fixed in 1% PFA-containing PBS. All flow analysis was performed on the LSRII (BD Biosciences) using FlowJo software (v.10.4.2). Color compensations were performed using single-stained samples for each of the fluorochromes used. Data were analyzed using FlowJo software (TreeStar, San Carlos, Calif.).
Changes to the metabolism of resting CD4^+ T-cells by tideglusib were studied. […] […].

[4] = test system: latent HIV-1 in blood CD4+ T cells from infected individuals on suppressive ART; assay type: cell-based
CD4+ T cells [5] = test: Example 5: CD4+ T cell viability, Cell Titer Blue assay; assay type: cell-based, human; conditions: 48 hours; for CD4+ T-cell viability: SB-216763 and tideglusib 10/100/1000 nM, bryostatin-1 10 nM
Method: 25 μl from each well/treatment were incubated with Cell Titer Blue reagent (Promega) for 3 to 4 hours at 37° C. The assay is based on the ability of living cells to convert a redox dye (resazurin) into a fluorescent end product (resorufin). Colorimetric analysis of treated cells was done with a Perkin Elmer EnSpire 2300 Multimode plate reader set to detect fluorescence (Ex:579 nm/Em:584 nm).

CD4+ T cells [6] = test: Example 5: surface expression of activation markers CD69 and CD25, flow cytometry; assay type: cell-based, human; conditions: 48 hours
Method: as §1

CD4+ T cells [7] = test: Example 5: cytokines release assay (V-PLEX pro-inflammatory panel); assay type: cell-based, human; conditions: 48 hours; culture supernatant of CD4+ T cells
Method: Supernatant was collected from the treated cell cultures described above and stored at −80° C. for later analysis. Supernatant cytokine levels were determined using a V-PLEX Proinflammatory Panel 1 (human) Kit (#K15049D-1) and a V-PLEX IL-17A Gen. B (human) (#K151WMD) from Meso Scale Discovery, following the manufacturer's protocol. The assay was done on undiluted supernatant samples in order to increase the sensitivity of the assay.

patient CD4+ T cells = conditions: human, 48 h
GSK-3 = conditions: cited from earlier work
[8] = test system: latent HIV in CD4+ T cells of HIV-infected patients on suppressive anti-retroviral therapy; test: Example 7: reversal of HIV latency in patient CD4+ T cells, extracellular viral RNA by digital droplet PCR
[9] = test system: patient-derived CD4+ T cells; conditions: as shown in PCT/US2016/64614; cited from earlier work
CD8+ T cells = test: Example 5: CD8 T-cell viability and cytotoxic effector functions; assay type: cell-based, human; conditions: 48 hours; 50 nM
Method: After drug treatment, human PBMCs were cultured in complete RPMI in the presence of CD107a-BV650 (1:50, 328637, BioLegend) or CD107a-FITC antibodies (1:50, 555800, BD Bioscience) and PMA/ionomycin (50 ng/ml and 1 uM) dor 3.5 hours, adding Brefeldin A and Monensin (eBioscience) for the last hour. Cells were subsequently stained for viability using the viability dyes eFluor 506, (eBioscience) according to the provided protocol. After surface marker staining with the following antibodies (all at 1:100 dilution): CD3-APC-H7 (560176; BD Biosciences), CD8-V450 (560347; BD Biosciences), CD45RA-APC (17-0458; eBioscience), and CCR7-PE-Cy7 (557648; BD Biosciences), cells were permeabilized and fixed using the Foxp3/Transcription Factor Fixation/Permeabilization Concentrate and Diluent kit (eBioscience). Intracellular staining was performed with IFN-γ-PerCP-Cy5.5 antibody (1:100, 560704, BD Bioscience) in FOXP3 perm/wash buffer for 1 h at 4° C. After washing and fixation of the cells in 1% paraformaldehyde/PBS, cells were analyzed by flow cytometry. Final data stems from having gated on CD8hi- and CD8lo-expressing T cells.

NK cells = test: Example 5: NK cell viability and cytotoxic effector functions; assay type: cell-based, human; conditions: 48 hours; 50 nM
Method: Density centrifugation using a Ficoll-Hypaqua gradient was performed to purify PBMCs from continuous-flow centrifugation leukapheresis product. Subsequently, cells were plated in 96-well U-bottom plated in complete RPMI, which was supplemented with 10 ng/ml recombinant IL-15 (R&D systems), treated with LRAs or vehicle controls (DMSO) and incubated at 37° C., 5% CO2 for 48 h. To assay NK cell functionality, cells were analyzed by flow cytometry. Briefly, 1×10^6 cells/200 ul were stained with FITC anti-CD107 antibodies (1:50, BD Biosciences), mixed with 1×10^5 K562 cells and incubated at 37° C., 5% CO2 for 1 h. Then, in order to enhance intracellular cytokine staining, protein transport was blocked with Brefeldin A (Sigma-Aldrich) and golgi stop (BD Biosciences) according to the manufacturer instructions and the cells were incubated at 37° C., 5% CO2 for another 5 h. Afterwards, cells were spun down (5 min, 330×g, RT), the supernatant was removed and the cells were stained using Zombie violet (1:50, Biolegend) according to the manufacturer protocol. Subsequently, cells were stained for surface proteins staining with the following antibodies: APC/Cy7 anti CD3 (1:100, Biolegend), APC anti CD14 (1:100, Biolegend), APC anti CD19 (1:100, Biolegend), PE/Cy7 anti CD56 (1:100, BD Biosciences), Alexa Fluor 700 anti CD16 (1:100, Biolegend), PE anti CD7 (1:50, Thermo Fisher Scientific) for 15 min at room temperature. Next, cells were permeabilized and fixed using the Foxp3/Transcription Factor Fixation/Permeabilization Concentrate and Diluent kit (eBioscience) and stained intracellularly with PerCP/Cy5 anti IFN-γ (1:50, BD Bioscience) in FOXP3 perm/wash buffer for 1 h at 4° C. Finally, cells were washed and fixed in 1% paraformaldehyde/PBS, and subjected to flow cytometry analysis on a LSRII (BD Biosciences). Data were obtained using FlowJo software (Treestar). Samples were gated for singlets, live, CD3 negative, CD14/CD19 negative and CD7 positive cells as previously described (York, Milush). CD16high/CD56dim, CD16dim/CD56high cells were considered for analysis of IFN-γ and CD107a positivity. All gates were defined, based on fluorescence minus one (FMO) samples.

[10] = test system: patient-derived CD4+ T cells; conditions: as shown in PCT/US2016/64614; cited from earlier work; remark: listed apart in the source
[11] = 10 nM, 48 hours, relative to untreated control

For `O=CC[C@@H](O)[C@H](O)[C@H](O)CO` [2-DG, 2-deoxy-D-glucose], the “L-lactate production in treated and untreated samples” value (CD4+ T cells [1]; 50 mM, 24 hours) was “dramatically reduced L-lactate production”.
In the case of `Cc1sc2c(c1C)C(c1ccc(Cl)cc1)=N[C@@H](CC(=O)OC(C)(C)C)c1nnc(C)n1-2` [JQ-1], the “latency reversal by first-generation LRAs” value [2] is reported as “only minimal latency reversal”.
For `CCCCCCCCCCCCCC(=O)O[C@@H]1[C@@H](C)[C@@]2(O)[C@@H](C=C(CO)C[C@]3(O)C(=O)C(C)=C[C@@H]23)[C@@H]2C(C)(C)[C@]12OC(C)=O` [PMA, phorbol 12-myristic13-acetate], the “cell viability relative to untreated cells” value (tonsil CD4+ T cells) was “clear toxicity; also recorded: toxicity was observed”.
In the case of `CC(C)n1nc(-c2cc3cc(O)ccc3[nH]2)c2c(N)ncnc21` [PP242], the “effect of co-treatment on tideglusib-mediated p65 nuclear translocation” value (NF-κB (p65)) is reported as “less reduction in nuclear translocation” and the “GLUT1 surface expression over the untreated control” value (CD4+ T cells [3]) is reported as “did not significantly alter expression of GLUT1”.
For `Cn1cc(C2=C(c3ccc(Cl)cc3Cl)C(=O)NC2=O)c2ccccc21` [SB-216763, 3-(2,4-Dichlorophenyl)-4-(1-methyl-1H-indol-3-yl)-1H-pyrrole-2,5-dione], the “virus-associated HIV-1 mRNA, mean fold-change” value [4] was […], the “CD4+ T-cell viability” value (CD4+ T cells [5]) was “does not reduce viability” and the “surface expression of the activation markers CD69 or CD25” value (CD4+ T cells [6]) was “no increase”. The “production and release of pro-inflammatory cytokines” value (CD4+ T cells [7]) was “does not induce T cell activation or cytokine production”, the “L-lactate in the culture media” value (CD4+ T cells [1]; 24 hours of treatment) was “did not result in an increase of L-lactate” and the “induction of the GFP reporter over unstimulated” value ([2]; doses between 100-1000 nM) was 90 fold. For the same compound, the “toxicity based on cell-titer blue testing” value (patient CD4+ T cells) was “Neither tideglusib nor SB216763 induced toxicity”, the IC50 (GSK-3) was […] and the “latency reversing activity, in words” value ([8]; at equivalent doses) was “comparable activity”. The “subjects that did not respond” value ([8]; highest dose) was 3 of 14.
For `CCOC(=O)C1=C(N)Oc2ccc(Cl)cc2C1C(C#N)C(=O)OCC` (stereo not drawn) [SC79, 2-amino-6-chloro-α-cyano-3-(ethoxycarbonyl)-4H-1-benzopyran-4-acetic acid ethyl ester], the “release of virions in the culture supernatant” value ([4]; 48 hours, CD4+ T cells from five HIV-positive participants, SC79 10/100/1000 nM) was “increased release of virions”.
With `CCC/C=C/C=C/C(=O)O[C@H]1/C(=C/C(=O)OC)C[C@H]2C[C@H]([C@@H](C)O)OC(=O)C[C@H](O)C[C@@H]3C[C@H](OC(C)=O)C(C)(C)[C@](O)(C[C@@H]4C/C(=C/C(=O)OC)C[C@H](/C=C/C(C)(C)[C@]1(O)O2)O4)O3` [bryostatin-1] the “virus-associated HIV-1 mRNA, mean fold-change” value [4, 11] was 574.4 fold, the “virus-associated HIV-1 mRNA, median value” [4, 11] was 5.086 fold and the “CD4+ T-cell viability” value (CD4+ T cells [5]) was “minimal decrease”. For the same compound, the CD69 surface expression (CD4+ T cells [6]; 10 nM) was “markedly increased”, the “production and release of pro-inflammatory cytokines” value (CD4+ T cells [7]) was “release of IFN-γ, IL-6, IL-13” and the “latency reversal by first-generation LRAs” value [2] was “only minimal latency reversal”. For the same compound, the “activation marker expression with known latency-reversing agent” value [9] was “increase in activation marker expression”.
With `Cc1[nH]c2ccccc2c1CCNCc1ccc(/C=C/C(=O)NO)cc1` [panobinostat] the “cell death of CD4+ T cells” value (CD4+ T cells [5]; 50 nM) was ~50%, the “reduction of total CD8+ T cells” value (CD8+ T cells) was “approximately 40%” and the “reduction of total NK cells” value (NK cells) was “approximately 60%”. For the same compound, the “toxicity of known latency-reversing agent” value [10] was “highly toxic”.
